These results are taken from US4542145A, “Substituted N-[(1H-1,2,4-triazol-1-yl)-alkyl]heteroarylcarboxamides” (American Cyanamid Company, priority 1984, dated 1985).

One assay deals with T1, thromboxane synthetase (Rattus norvegicus, UniProt P49430).
T1 construct: The platelets were isolated by centrifuging the PRP; endogenous in cells; host or cells: washed platelets from arterial blood of Okamoto-Aoki spontaneously hypertensive rats (Taconic Farms)
T1 sequence (P49430 1-533): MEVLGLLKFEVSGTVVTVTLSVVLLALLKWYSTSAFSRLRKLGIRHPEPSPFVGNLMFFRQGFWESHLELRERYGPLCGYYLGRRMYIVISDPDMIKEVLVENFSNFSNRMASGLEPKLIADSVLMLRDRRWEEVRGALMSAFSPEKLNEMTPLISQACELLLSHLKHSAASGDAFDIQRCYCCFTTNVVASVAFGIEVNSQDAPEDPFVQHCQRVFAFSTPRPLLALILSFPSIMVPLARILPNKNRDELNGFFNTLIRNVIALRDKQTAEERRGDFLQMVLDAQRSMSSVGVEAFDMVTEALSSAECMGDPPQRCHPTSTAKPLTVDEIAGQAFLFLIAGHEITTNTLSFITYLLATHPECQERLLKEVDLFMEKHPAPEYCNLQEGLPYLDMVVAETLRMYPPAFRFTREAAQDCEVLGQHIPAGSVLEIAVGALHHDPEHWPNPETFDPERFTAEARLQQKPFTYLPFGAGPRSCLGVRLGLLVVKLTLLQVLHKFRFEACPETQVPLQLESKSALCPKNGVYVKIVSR
The experiment in a line: Inhibition of thromboxane (TXB2) formation in washed SHR platelets, RIA. Format: cell-based, spontaneously hypertensive rats (Okamoto-Aoki). To be noted: 10 min, Dose 10^-4 (unit inferred), about 10 minutes at about 37° C. The method, then: Under urethan anesthesia, about 10 μl arterial blood was collected in approximately 1 ml. of about 3.2% sodium citrate in a polystyrene tube from Okamoto-Aoki spontaneously hypertensive rats (SHR) (Taconic Farms, Germantown, N.Y.) between 19 and 24 weeks in age. The blood was diluted with about 3 ml of cold saline and centrifuged at room temperature for about 15 minutes at 460 xg. The platelet rich plasma (PRP) was separated. The platelets were isolated by centrifuging the PRP for about 10 minutes at 1060 xg and were washed in about 4 ml of cold oxygenated Krebs phosphate buffer, about pH 7.4. The chilled platelets recovered from centrifuging at 800 xg for about 10 minutes were resuspended in oxygenated Krebs phosphate buffer and diluted to contain 4.5-6.0×10^4 platelets/μl.
The inhibition of thromboxane (TX) formation was studied by determining the concentration of thromboxane B2 (TXB2), the stable hydrolysis product of TXA2. Assay samples, prepared on ice, contained about 200 μl platelet suspension, about 50 μl saline and about 50 μl vehicle or drug under study. The samples were incubated for about 10 minutes at about 37° C. in a metabolic shaker. The reaction was terminated by immersing the tubes in an ice bath and adding about 50 μl of approximately 0.5 M citric acid. The samples were centrifuged for about 10 minutes in a refrigerated centrifuge and the supernatants thus obtained were decanted and stored at about-20° C. The TXB2 content for each sample was determined by a direct radioimmunoassay (RIA) utilizing a TXB2 specific RIA kit purchased from New England Nuclear, Boston, Mass. and expressed as pg TXB2 formed minute^-1 sample^-1, from which the percent inhibition of TXB2 formation was calculated.

In assay [1] the test system is spontaneously hypertensive rats. Nature of the assay: Hypotensive activity in spontaneously hypertensive rats (mean arterial blood pressure). Type of assay: in vivo, spontaneously hypertensive rats (Okamoto strain). Particulars: oral gavage, about 100 mg/kg or less, two doses 24 h apart, 0.9% NaCl loading with first; about 28 hours after initial dose; SHR average MABP 170±1.5 mm of mercury; (No. of rats) in parentheses. On the procedure:
The novel compounds of the present invention are active hypotensive agents and were tested for hypotensive activity by the method of P. S. Chan and D. Poorvin, Clinical and Experimental Hypertension, 1 (6), 817-830 (1979). Male, 16 week old, spontaneously hypertensive rats of the Okamoto strain, from Taconic Farms, Germantown, N.Y., having an average mean arterial blood pressure of 170±1.5 mm of mercury are used in the test. One to 3 rats are used per test compound. A rat is dosed by gavage with a test compound, suspended in approximately 2% pre-boiled starch at a concentration of about 50 mg/ml, at a dose of about 100 mg/kg of body weight or less, with approximately 0.9% sodium chloride loading at a dose of about 25 ml/kg of body weight. A second identical dose of the test compound, without sodium chloride loading is given about 24 hours later. At about 28 hours after the initial dose the mean arterial blood pressure is measured by the method of Chan and Poorvin vide supra. The procedure is repeated in a second and third rat when necessary.

Each structure is given as a SMILES string. Where a name gives a salt, the structure may show the parent alone.

At thromboxane synthetase, `Cc1ccc(C(=O)NCCCn2cncn2)s1` [5-methyl-N--[3-(1H--1,2,4-triazol-1-yl)propyl]-2-thiophenecarboxamide] showed an inhibition at 100 µM of 56%. On thromboxane synthetase, `O=C(NCCCn1cncn1)c1ccc(Br)o1` [5-bromo-N--[3-(1H--1,2,4-triazol-1-yl)propyl]-2-furancarboxamide] came in with an inhibition at 100 µM of 61%. In addition, the “MABP (mean arterial blood pressure)” value in assay [1] was determined as 107 m Hg.

`O=C(NCCCn1cncn1)c1ccoc1` [N--[3-(1H--1,2,4-triazol-1-yl)propyl]-3-furan-carboxamide]: the inhibition at 100 µM at thromboxane synthetase stood at 55%. For the same molecule, in assay [1], the “MABP (mean arterial blood pressure)” value was 135 m Hg. On thromboxane synthetase, `O=C(NCCCn1cncn1)c1sc2ccccc2c1Cl` [3-chloro-N--[3-(1H--1,2,4-triazol-1-yl)propyl]-benzo[b]thiophene-2-carboxamide] displayed an inhibition at 100 µM of 60%. Also, in assay [1], the “MABP (mean arterial blood pressure)” value is listed as 137 m Hg. `O=C(C=Cc1cccs1)NCCCn1cncn1` [N--[3-(1H--1,2,4-triazol-1-yl)propyl]-3-(2-thien-yl)-2-propenamide]: the inhibition at 100 µM at thromboxane synthetase was found to be 68%. As to `O=C(NCCCn1cncn1)c1cccs1` [N--[3-(1H--1,2,4-triazol-1-yl)propyl]-2-thio-phenecarboxamide], on thromboxane synthetase, the inhibition at 100 µM worked out at 30%. Moreover, the “MABP (mean arterial blood pressure)” value in assay [1] is given as 130 m Hg. The matching figures for `O=C(NCCCn1cncn1)c1ccc([N+](=O)[O-])o1` [5-Nitro-N-[3-(1H-1,2,4-triazol-y)propyl]-2-furancarboxamide]: 70% and 132 m Hg. The molecule `O=C(NCCCn1cncn1)c1ccco1` [N-[3-(1H-1,2,4-Triazol-1-yl)propyl]-2-furancarboxamide] had an inhibition at 100 µM against thromboxane synthetase of 65%. `O=C(NCCCn1cncn1)c1cc(Br)c(Br)s1` [4,5-dibromo-N--[3-(1H--1,2,4-triazol-1-yl)-propyl]-2-thiophene-carboxamide]: the inhibition at 100 µM on thromboxane synthetase was 86%. The “MABP (mean arterial blood pressure)” value in assay [1] came to 137 m Hg.

As for `O=C(NCCCn1cncn1)c1cc2ccccc2o1` [N--[3-(1H--1,2,4-triazol-1-yl)propyl]-2-benzo-furancarboxamide], on thromboxane synthetase, the inhibition at 100 µM came to 84%. Also, the “MABP (mean arterial blood pressure)” value in assay [1] is on record as 135 m Hg.

With `O=C(NCCCn1cncn1)c1ccc(Cl)s1` [5-chloro-N--[3-(1H--1,2,4-triazol-1-yl)propyl]-2-thiophenecarboxamide], the inhibition at 100 µM at thromboxane synthetase turned out to be 64%. Besides, in assay [1], the “MABP (mean arterial blood pressure)” value was determined as 135 m Hg. For the molecule `O=C(NCCCn1cncn1)c1ccco1` [N--[3-(1H--1,2,4-triazol-1-yl)propyl]-2-furancarboxamide, fumarate], the “MABP (mean arterial blood pressure)” value in assay [1] was determined as 116 m Hg. Turning to `O=C(NCCCCn1cncn1)c1sc2ccccc2c1Cl` [3-Chloro-N-[4-(1H-1,2,4-triazol-1-yl)-butyl]benzo[b]thiophene-2-carboxamide], the inhibition at 100 µM at thromboxane synthetase amounted to 90%. Further, in assay [1], the “MABP (mean arterial blood pressure)” value was 119 m Hg.

`O=C(NCCn1cncn1)c1sc2ccccc2c1Cl` [3-Chloro-N-[2-(1H-1,2,4-triazol-1-yl)ethyl]-benzo[b]thiophene-2-carboxamide] came in with an inhibition at 100 µM at thromboxane synthetase of 90%.
